Assay results as given in the NIST ThermoML archive (doi:10.1021/je200030k).
± gives the expanded uncertainty stated by the source.

What was measured:
[1] = 101.33 kPa, Liquid, Vibrating tube method
[2] = refractive index (Na D-line) (dimensionless); conditions: 101.33 kPa, Liquid, Standard Abbe refractometry

SMILES	mass density ([1]; 298.15 K)	mass density ([1]; 303.15 K)	mass density ([1]; 308.15 K)	mass density ([1]; 313.15 K)	refractive index ([2]; 298.15 K)	refractive index ([2]; 303.15 K)	refractive index ([2]; 308.15 K)	refractive index ([2]; 313.15 K)
CCCCn1cc[n+](C)c1.NCC(=O)[O-] [1-butyl-3-methylimidazolium glycinate]	1260.26 ± 1.1 kg/m3	1257.2 ± 1.1 kg/m3	1254.1 ± 1.1 kg/m3	1250.77 ± 1.1 kg/m3	1.52 ± 0.002	1.519 ± 0.002	1.517 ± 0.002	1.517 ± 0.002
CCCCO [butan-1-ol]	806 ± 1 kg/m3	802.4 ± 1 kg/m3	798.2 ± 1 kg/m3	794.6 ± 1 kg/m3	1.397 ± 0.002	1.395 ± 0.002	1.393 ± 0.002	1.391 ± 0.002
CC(C)O [propan-2-ol]	781.2 ± 1 kg/m3	774 ± 1 kg/m3	765.8 ± 1 kg/m3	757.2 ± 1 kg/m3	1.375 ± 0.002	1.374 ± 0.002	1.373 ± 0.002	1.372 ± 0.002
